Values after ≈ are worked out from the molar mass of the structure shown.
Key:
[1] = Cytotoxicity against African green monkey Vero cells incubated for 72 hrs by MTT assay; format: cell-based; settings: chlorocebus sabaeus
Pseudomonas aeruginosa = experiment: Antibacterial activity against Pseudomonas aeruginosa ATCC 27853 assessed as bacterial growth inhibition incubated for 16 to 18 hrs by broth microdilution method; format: functional; settings: time 16-18 hrs
Escherichia coli = experiment: Antibacterial activity against Escherichia coli ATCC 25922 assessed as bacterial growth inhibition incubated for 16 to 18 hrs by broth microdilution method; format: functional; settings: time 16-18 hrs
Acinetobacter baumannii [2] = experiment: Antibacterial activity against Acinetobacter baumannii BAA 1605 assessed as bacterial growth inhibition incubated for 16 to 18 hrs by broth microdilution method; format: functional; settings: time 16-18 hrs
Klebsiella pneumoniae = experiment: Antibacterial activity against Klebsiella pneumoniae BAA-1705 assessed as bacterial growth inhibition incubated for 16 to 18 hrs by broth microdilution method; format: functional; settings: time 16-18 hrs
[3] = Selectivity index, ratio of CC50 for cytotoxicity against African green monkey Vero cells to MIC for antibacterial activity against Staphylococcus aureus ATCC 29213; format: toxicity, cell-based; settings: read-out: Selectivity Index
Acinetobacter baumannii [4] = experiment: Antibacterial activity against Acinetobacter baumannii BAA-1605 ssessed as bacterial growth inhibition in presence of outermembrane permeabilizer, PMBN incubated for 16 to 18 hrs by broth microdilution method; format: functional; settings: time 16-18 hrs
Staphylococcus aureus [5] = experiment: Antibacterial activity against methicillin-resistant Staphylococcus aureus NRS 10119 assessed as bacterial growth inhibition incubated for 16 to 18 hrs by broth microdilution method; format: functional; settings: time 16-18 hrs
Staphylococcus aureus [6] = experiment: Antibacterial activity against methicillin-resistant Staphylococcus aureus NRS 10100 assessed as bacterial growth inhibition incubated for 16 to 18 hrs by broth microdilution method; format: functional; settings: time 16-18 hrs
Staphylococcus aureus [7] = experiment: Antibacterial activity against methicillin-resistant Staphylococcus aureus NRS 10129 assessed as bacterial growth inhibition incubated for 16 to 18 hrs by broth microdilution method; format: functional; settings: time 16-18 hrs
Staphylococcus aureus [8] = experiment: Antibacterial activity against methicillin-resistant Staphylococcus aureus NRS 10198 assessed as bacterial growth inhibition incubated for 16 to 18 hrs by broth microdilution method; format: functional; settings: time 16-18 hrs
Staphylococcus aureus [9] = experiment: Antibacterial activity against methicillin-resistant Staphylococcus aureus NRS 10192 assessed as bacterial growth inhibition incubated for 16 to 18 hrs by broth microdilution method; format: functional; settings: time 16-18 hrs
Staphylococcus aureus [10] = experiment: Antibacterial activity against methicillin-resistant Staphylococcus aureus NRS 10191 assessed as bacterial growth inhibition incubated for 16 to 18 hrs by broth microdilution method; format: functional; settings: time 16-18 hrs
Staphylococcus aureus [11] = experiment: Antibacterial activity against methicillin-resistant Staphylococcus aureus NRS 10194 assessed as bacterial growth inhibition incubated for 16 to 18 hrs by broth microdilution method; format: functional; settings: time 16-18 hrs
Staphylococcus aureus [12] = experiment: Antibacterial activity against vancomycin-resistant Staphylococcus aureus VRS1 assessed as bacterial growth inhibition incubated for 16 to 18 hrs by broth microdilution method; format: functional; settings: time 16-18 hrs
Staphylococcus aureus [13] = experiment: Antibacterial activity against vancomycin-resistant Staphylococcus aureus VRS4 assessed as bacterial growth inhibition incubated for 16 to 18 hrs by broth microdilution method; format: functional; settings: time 16-18 hrs
Enterococcus [14] = experiment: Antibacterial activity against vancomycin-susceptible Enterococcus NR 31884 assessed as bacterial growth inhibition incubated for 16 to 18 hrs by broth microdilution method; format: functional; settings: time 16-18 hrs
Enterococcus [15] = experiment: Antibacterial activity against vancomycin-susceptible Enterococcus NR 31885 assessed as bacterial growth inhibition incubated for 16 to 18 hrs by broth microdilution method; format: functional; settings: time 16-18 hrs
Enterococcus [16] = experiment: Antibacterial activity against vancomycin-susceptible Enterococcus NR 31886 assessed as bacterial growth inhibition incubated for 16 to 18 hrs by broth microdilution method; format: functional; settings: time 16-18 hrs
Enterococcus [17] = experiment: Antibacterial activity against vancomycin-resistant Enterococcus NR 31903 assessed as bacterial growth inhibition incubated for 16 to 18 hrs by broth microdilution method; format: functional; settings: time 16-18 hrs
Staphylococcus aureus [18] = experiment: Antibiofilm activity against Staphylococcus aureus ATCC 29213 assessed as reduction in preformed bacterial biofilm at 1XMIC incubated for 24 hrs by crystal violet staining based microtiter plate reader assay; format: functional
Staphylococcus aureus [19] = experiment: Antibiofilm activity against Staphylococcus aureus ATCC 29213 assessed as reduction in preformed bacterial biofilm at 10XMIC incubated for 24 hrs by crystal violet staining based microtiter plate reader assay; format: functional
Staphylococcus aureus [20] = experiment: Antibacterial activity against Staphylococcus aureus ATCC 29213 infected in mouse J774.A1 assessed as reduction in intracellular bacterial burden at 5XMIC incubated for 24 hrs followed by replating on TSA plate for 24 hrs by intracellular killing assay; format: functional; settings: time 48 hrs
Staphylococcus aureus [21] = experiment: Antibacterial activity against Staphylococcus aureus ATCC 29213 assessed as fractional inhibitory concentration in presence of ceftazidime incubated for 24 hrs by checkerboard assay; format: functional
Staphylococcus aureus [22] = experiment: Synergistic antibacterial activity against Staphylococcus aureus ATCC 29213 assessed as fractional inhibitory concentration in presence of gentamycin incubated for 24 hrs by checkerboard assay; format: functional
Staphylococcus aureus [23] = experiment: Antibacterial activity against Staphylococcus aureus ATCC 29213 assessed as fractional inhibitory concentration in presence of linezolid incubated for 24 hrs by checkerboard assay; format: functional
Staphylococcus aureus [24] = experiment: Antibacterial activity against Staphylococcus aureus ATCC 29213 assessed as fractional inhibitory concentration in presence of minocycline incubated for 24 hrs by checkerboard assay; format: functional
Staphylococcus aureus [25] = experiment: Antibacterial activity against Staphylococcus aureus ATCC 29213 assessed as fractional inhibitory concentration in presence of rifampicin incubated for 24 hrs by checkerboard assay; format: functional
Staphylococcus aureus [26] = experiment: Antibacterial activity against Staphylococcus aureus ATCC 29213 assessed as fractional inhibitory concentration in presence of vancomycin incubated for 24 hrs by checkerboard assay; format: functional
Staphylococcus aureus [27] = experiment: Bactericidal activity against Staphylococcus aureus ATCC 29213 assessed as reduction in bacterial load at 10X MIC preincubated for 6 hrs followed by subculturing on TSA plate for 18 to 20 hrs by time-kill assay; format: functional; design: scale not given: the % may be the effect or the level left; settings: time 24-26 hrs
Staphylococcus aureus [28] = experiment: Bactericidal activity against Staphylococcus aureus ATCC 29213 assessed as reduction in bacterial load at 10X MIC preincubated for 1 hr followed by subculturing on TSA plate for 18 to 20 hrs by time-kill assay; format: functional; settings: time 19-21 hrs
Staphylococcus aureus [29] = experiment: Antibacterial activity against Staphylococcus aureus ATCC 29213 assessed as bacterial growth inhibition in presence of ceftazidime incubated for 24 hrs by checkerboard assay; format: functional
Staphylococcus aureus [30] = experiment: Antibacterial activity against Staphylococcus aureus ATCC 29213 assessed as bacterial growth inhibition in presence of linezolid incubated for 24 hrs by checkerboard assay; format: functional
Staphylococcus aureus [31] = experiment: Antibacterial activity against Staphylococcus aureus ATCC 29213 assessed as bacterial growth inhibition in presence of meropenem incubated for 24 hrs by checkerboard assay; format: functional
Staphylococcus aureus [32] = experiment: Antibacterial activity against Staphylococcus aureus ATCC 29213 assessed as bacterial growth inhibition in presence of rifampicin incubated for 24 hrs by checkerboard assay; format: functional
Staphylococcus aureus [33] = experiment: Antibacterial activity against Staphylococcus aureus ATCC 29213 assessed as time for increase by 1 log10CFU at 1XMIC incubated for 1 hr followed by drug wash-out and measured every single 1 hr; format: functional
Staphylococcus aureus [34] = experiment: Antibacterial activity against Staphylococcus aureus ATCC 29213 assessed as time for increase by 1 log10CFU at 10XMIC incubated for 1 hr followed by drug wash-out and measured every single 1 hr; format: functional
Staphylococcus aureus [35] = experiment: Antibacterial activity against Staphylococcus aureus ATCC 29213 assessed as time for post-antibiotic effect at 1XMIC incubated for 1 hr followed by drug wash-out and measured every single 1 hr; format: functional
Staphylococcus aureus [36] = experiment: microbe, parasite or virus in culture; settings: ATCC 29213
Description: Antibacterial activity against Staphylococcus aureus ATCC 29213 assessed as bacterial growth inhibition incubated for 16 to 18 hrs by broth microdilution method

CC(C)=CCc1c(O)cc2oc(-c3ccc(O)cc3O)c(CC=C(C)C)c(=O)c2c1O [CUDRAFLAVONE C]
CC50 at 72 h [1]: 50 µg/mL (≈ 118 µM)
MIC (Pseudomonas aeruginosa): > 64 µg/mL
MIC (Escherichia coli): > 64 µg/mL
MIC (Acinetobacter baumannii [2]): > 64 µg/mL
MIC (Klebsiella pneumoniae): > 64 µg/mL
selectivity ratio [3]: 25
MIC (Acinetobacter baumannii [4]): 4 µg/mL
MIC (Staphylococcus aureus [5]): 4 µg/mL (≈ 9.47 µM)
MIC (Staphylococcus aureus [6]): 4 µg/mL (≈ 9.47 µM)
MIC (Staphylococcus aureus [7]): 4 µg/mL (≈ 9.47 µM)
MIC (Staphylococcus aureus [8]): 4 µg/mL (≈ 9.47 µM)
MIC (Staphylococcus aureus [9]): 4 µg/mL (≈ 9.47 µM)
MIC (Staphylococcus aureus [10]): 4 µg/mL (≈ 9.47 µM)
MIC (Staphylococcus aureus [11]): 4 µg/mL (≈ 9.47 µM)
MIC (Staphylococcus aureus [12]): 4 µg/mL (≈ 9.47 µM)
MIC (Staphylococcus aureus [13]): 4 µg/mL (≈ 9.47 µM)
MIC (Enterococcus [14]): 4 µg/mL (≈ 9.47 µM)
MIC (Enterococcus [15]): 4 µg/mL (≈ 9.47 µM)
MIC (Enterococcus [16]): 4 µg/mL (≈ 9.47 µM)
MIC (Enterococcus [17]): 4 µg/mL (≈ 9.47 µM)
inhibition (INH) (Staphylococcus aureus [18]): 8%
inhibition (INH) (Staphylococcus aureus [19]): 30.4%
Activity (Staphylococcus aureus [20]): 2 log10CFU/ml
FIC (Staphylococcus aureus [21]): 1.5
FIC (Staphylococcus aureus [22]): 0.135
FIC (Staphylococcus aureus [23]): 1.5
FIC (Staphylococcus aureus [24]): 1.5
FIC (Staphylococcus aureus [25]): 1.5
FIC (Staphylococcus aureus [26]): 1.5
Activity (Staphylococcus aureus [27]): 100%
Activity (Staphylococcus aureus [28]): 5 log10CFU/ml
MIC (Staphylococcus aureus [29]): 2 µg/mL
MIC (Staphylococcus aureus [30]): 2 µg/mL
MIC (Staphylococcus aureus [31]): 2 µg/mL
MIC (Staphylococcus aureus [32]): 2 µg/mL
Time (Staphylococcus aureus [33]): 4 h
Time (Staphylococcus aureus [34]): >24 h
Time (Staphylococcus aureus [35]): 2 h
MIC (Staphylococcus aureus [36]): 2 µg/mL (≈ 4.73 µM)
